Results from patent US9896443B2, “Perforin inhibiting benzenesulfonamide compounds, preparation and uses thereof” (Peter MacCallum Cancer Institute, priority 2012, dated 2018).
Structures can show the parent of a compound that is named as a salt. Where two headings read alike, the source gives them in different places.

Key:
[1] = molecular target: recombinant perforin (UniProt P10820); assay type: cell-based
Outline: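 Jurkat T lymphoma cells labelled with 51Cr for 1 h, washed, then exposed to recombinant perforin with compound in RPMI plus 0.1% BSA. Lysis measured as 51Cr release. IC50 from a concentration range run in triplicate.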

[2] = system: KHYG-1 NK cell-mediated lysis of K562 cells; assay: Inhibition of KHYG-1 NK cell-mediated lysis of K562 cells (51Cr release); assay type: cell-based; conditions: K562 target cells, Effector:Target 2:1, 4 hours at 37° C.; for inhibition at 20 µM: 4 h
Outline: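 KHYG-1 effector cells pretreated with compound (up to 20 µM) for 20 min at RT. 51Cr-labelled K562 targets were then added at effector:target 2:1 and incubated 4 h at 37 °C. 51Cr release was gamma-counted and expressed as % specific cytotoxicity.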

[3] = system: NK and perforin-mediated bone marrow rejection; assay: In vivo inhibition of perforin-mediated bone marrow rejection; design: species or system C57Bl/6 mice; conditions: 120 mg/kg intra-peritoneal once daily day -2 to day +1; Balb/c bone marrow transplant; blood day +1
Experimental: In Vivo Inhibition of Perforin-Mediated Bone Marrow Rejection.
On day 0 mice received 12×106 Balb/c (CD45.2+) CFSE labelled bone marrow as well as 12×106 B6.PTP (CD45.1+) bone marrow. On day +1 blood was collected for in vivo cytotoxicity assays looking at the ratio of recipient (CD45.1+) versus donor cells (CFSE+) (FIG. 1). Results are illustrated in FIG. 2 as two experiments combined with n=6, 10, 10, 4 and 3/group. […] Statistically significant differences were calculated using two-tailed t tests between groups.

[4] = read-out: Jurkat IC50; lysis of Jurkat T lymphoma cells by recombinant perforin, 0.1% BSA, 30 min pre-incubation, 4 hours at 37° C.
[5] = lysis of Jurkat T lymphoma cells by recombinant perforin, 0.1% BSA, 30 min pre-incubation, 4 hours at 37° C.; read-out: Jurkat IC50

recombinant perforin, sequence (P10820 whole entry): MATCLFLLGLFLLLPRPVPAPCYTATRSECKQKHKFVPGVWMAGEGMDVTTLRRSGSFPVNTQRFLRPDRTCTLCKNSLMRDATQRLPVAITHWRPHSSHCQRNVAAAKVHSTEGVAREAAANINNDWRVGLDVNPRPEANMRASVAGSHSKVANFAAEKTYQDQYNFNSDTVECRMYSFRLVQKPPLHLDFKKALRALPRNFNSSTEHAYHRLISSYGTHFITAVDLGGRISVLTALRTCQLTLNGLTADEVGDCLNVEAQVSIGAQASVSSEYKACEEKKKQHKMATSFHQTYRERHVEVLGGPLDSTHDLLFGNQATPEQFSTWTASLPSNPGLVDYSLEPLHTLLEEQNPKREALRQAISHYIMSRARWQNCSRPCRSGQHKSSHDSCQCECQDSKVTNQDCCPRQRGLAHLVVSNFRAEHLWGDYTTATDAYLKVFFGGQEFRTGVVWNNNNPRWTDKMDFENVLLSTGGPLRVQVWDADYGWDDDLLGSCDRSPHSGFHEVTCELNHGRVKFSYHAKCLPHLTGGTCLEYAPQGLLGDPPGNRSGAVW

| Structure (SMILES) | IC50 [1, 4] | inhibition at 20 µM [2] | melting point | IC50 [1, 5] | inhibition of NK and perforin-mediated bone marrow rejection [3] | Inhibition of KHYG-1 at 20 μM (%) ([2]; sodium salt) | Inhibition of KHYG-1 at 20 μM (%) [2] |
| --- | --- | --- | --- | --- | --- | --- | --- |
| CN1Cc2cc(-c3ccc(-c4cnc(N)c(S(=O)(=O)Nc5ccc(F)cc5F)c4)s3)ccc2C1=O [Compound 45, 2-Amino-N-(2,4-difluorophenyl)-5-(5-(2-methyl-1-oxoisoindolin-5-yl)thiophen-2-yl)pyridine-3-sulphonamide] | 4630 nM | 14% | 278 to 279 °C |  |  |  |  |
| CN1Cc2cc(-c3ccc(-c4cncc(NS(=O)(=O)c5ccc(Cl)c(Cl)c5)c4)s3)ccc2C1=O [Compound 12, 3,4-Dichloro-N-(5-(5-(2-methyl-1-oxoisoindolin-5-yl)thiophen-2-yl)pyridin-3-yl)benzenesulfonamide] |  | 45% | 256 to 259 °C | 1320 nM |  |  |  |
| Cc1cccc(S(=O)(=O)Nc2cncc(-c3ccc(-c4ccc5c(c4)CN(C)C5=O)s3)c2)c1 [Compound 2, 3-Methyl-N-(5-(5-(2-methyl-1-oxoisoindolin-5-yl)thiophen-2-yl)pyridin-3-yl)benzenesulfonamide] | 7330 nM | 27% | 281 to 284 °C |  |  |  |  |
| CN1Cc2cc(-c3ccc(-c4cncc(NS(=O)(=O)c5ccc(F)cc5F)c4)s3)ccc2C1=O [Compound 1.Na, 2,4-Difluoro-N-(5-(5-(2-methyl-1-oxoisoindolin-5-yl)thiophen-2-yl)pyridin-3-yl)benzenesulfonamide, sodium salt] |  |  |  |  | able to inhibit NK and perforin-mediated bone marrow rejection | 48% |  |
| CN1Cc2cc(-c3ccc(-c4ccc(OC(F)(F)F)c(NS(=O)(=O)c5ccccn5)c4)s3)ccc2C1=O [Compound 63, N-(5-(5-(2-Methyl-1-oxoisoindolin-5-yl)thiophen-2-yl)-2-(trifluoromethoxy)phenyl)pyridine-2-sulfonamide] |  |  | 200 to 201 °C | > 20000 nM |  |  | 56.14 ± 9% |
| CN1Cc2cc(-c3ccc(-c4cncc(NS(=O)(=O)c5cccs5)c4)s3)ccc2C1=O [Compound 34, N-(5-(5-(2-Methyl-1-oxoisoindolin-5-yl)thiophen-2-yl)pyridin-3-yl)thiophene-2-sulfonamide] |  | 45% | 300 to 304 °C | 1070 nM |  |  |  |
| COc1ccc(S(=O)(=O)Nc2cncc(-c3ccc(-c4ccc5c(c4)CN(C)C5=O)s3)c2)cc1 [Compound 20, 4-Methoxy-N-(5-(5-(2-methyl-1-oxoisoindolin-5-yl)thiophen-2-yl)pyridin-3-yl)benzenesulfonamide] |  | 24% | 254 to 258 °C | 6270 nM |  |  |  |
| O=C1c2ccc(-c3ccc(-c4cncc(NS(=O)(=O)c5ccc(F)cc5F)c4)s3)cc2CN1CCO [Compound 56, 2,4-Difluoro-N-(5-(5-(2-(2-hydroxyethyl)-1-oxoisoindolin-5-yl)thiophen-2-yl)pyridin-3-yl)benzenesulfonamide] | 1330 nM | 32% | 211 to 216 °C |  |  |  |  |
| CN1Cc2cc(-c3ccc(-c4cncc(NS(=O)(=O)c5ccccc5Cl)c4)s3)ccc2C1=O [Compound 9, 2-Chloro-N-(5-(5-(2-methyl-1-oxoisoindolin-5-yl)thiophen-2-yl)pyridin-3-yl)benzenesulfonamide] |  | 47% | 299 to 303 °C | 4010 nM |  |  |  |
| CN1Cc2cc(-c3ccc(-c4cncc(NS(=O)(=O)c5cccc(OC(F)(F)F)c5)c4)s3)ccc2C1=O [Compound 23, N-(5-(5-(2-Methyl-1-oxoisoindolin-5-yl)thiophen-2-yl)pyridin-3-yl)-3-(trifluoromethoxy)benzenesulfonamide] |  | 38% | 230 to 232 °C | 1420 nM |  |  |  |
| CN1Cc2cc(-c3ccc(-c4cncc(NS(=O)(=O)c5cccc(Br)c5)c4)s3)ccc2C1=O [Compound 16, 3-Bromo-N-(5-(5-(2-methyl-1-oxoisoindolin-5-yl)thiophen-2-yl)pyridin-3-yl)benzenesulfonamide] |  | 20% | 303 to 307 °C | 2110 nM |  |  |  |
